Test results as given in patent US7025968B2, “CMV vaccines” (ChemoCentryx, Inc., priority 2000, dated 2006).

How the values were obtained:
[1] = target: wild type virions (Toledo); test: 125I-fractalkine competition binding to purified HCMV virions (Example 1); design: species or system HCMV strain Toledo; conditions: about 3 hours at 4° C., FIG. 5, read-out: IC50, unlabeled fractalkine competing off labeled fractalkine
Description: (§1) Human dermal fibroblasts were infected with HCMV strain Toledo or HCMV TolΔUS28 (Streblow et al., 1999, Cell 99:511-20) at an MOI of 0.01 and maintained at 37° C. and 5% CO2 in Dulbecco's minimal essential medium with 10% fetal calf serum and fed as necessary. At day 15 post infection supernatant was collected and clarified by two rounds of centrifugation at 400 g. Virions from the clarified supernatant were pelleted at 10,000 g, resuspended in TN (50 mM TRIS-Cl pH 7.5, 100 mM NaCl), and purified over two consecutive 20-70% sucrose gradients by standard techniques (Britt W J., 1984, Virology 135: 369-78). Virions were resuspended in 500 ul of assay buffer (20 mM HEPES, 140 mM NaCl, 1 mM CaCl2, 5 mM MgCl2, and with 0.2% bovine serum albumin) and 0.09 mL added to each well of assay plates containing serial dilutions of fractalkine (concentrations between 0-250 nM) in triplicate.
(§2) Then 0.09 mL of ^125I-fractalkine diluted in assay buffer (final concentration ˜2-10 fM, with ˜30,000 cpm per well) was added, the plates sealed and incubated for approximately 3 hours at 4° C. on a shaker platform. The assay plates were harvested using Packard filter plates, pre-soaked in PEI solution, on the vacuum harvest apparatus. Scintillation fluid (35 μL) was added to all wells, the plates were sealed and counted in a Top Count scintillation counter. […]

[2] = test system: virions with deletion of US28 from the genome (TolΔUS28); test: 125I-fractalkine binding to purified US28-deleted HCMV virions (Example 1); conditions: FIG. 5
Description: as §1, §2

[3] = test system: Rhesus dermal fibroblasts infected with Rhesus CMV; test: radioligand binding assay, 125I-fractalkine on rhCMV-infected cells (Example 3); conditions: unlabeled fractalkine vs 125I-fractalkine ~50 pM, 2-4 hours at 4° C., FIG. 6; read-out: IC50, reduction of binding of labeled fractalkine to the receptor by 50%
Description: Radioligand binding assays were carried our in the following manner. The target cells typically used in these assays were Rhesus dermal fibroblasts which had been infected with Rhesus; CMV for 3-7 days. Lots of cells verified for fractalkine binding were frozen until ready for use. For the assay, cells were thawed, washed, and resuspended in assay buffer (20 mM HEPES pH 7.1, 140 mM NaCl, 1 mM CaCl2, 5 mM MgCl2, and 0.2% bovine serum albumin) to a concentration of from 4×10^5 to 5×10^6 cells/ml.
Serial dilutions of unlabeled fractalkine were prepared as a 10× solution in 20% DMSO, and 0.02 ml was placed in assay plates. Next 0.09 ml of cells was added to the assay plates containing the unlabeled fractalkine. Lastly, 0.09 ml of ^125I-fractalkine diluted in assay buffer (final concentration ˜50 pM, with 20,000-50,000 cpm per well) was added, the plates sealed and incubated for 2-4 hours at 4° C. on a shaker platform. Assay plates were harvested using Packard GF/B filter plates (pre-soaked in 0.3% polyethyleneimmine (PEI) solution) on a Packard vacuum cell harvester. Scintillation fluid was added to all wells, the plates were sealed and then counted in a Top Count scintillation counter. Control wells containing either diluent only (for total counts) or excess unlabeled fractalkine (1 μg/ml, for non-specific binding) were used to calculate the percent of total inhibition. […]

[4] = test system: Wild type HCMV virions expressing US28; test: 125I-fractalkine binding to virions (Example 4), wild type HCMV; design: species or system human CMV strain Toledo; conditions: 3 hours at 4° C., FIG. 7
Description: (§3) Human dermal fibroblast (HDF) were infected at an MOI of 3 with human CMV strain Toledo or a Toledo strain in which the US28 gene had been replaced with a green fluorescent protein/gpt resistance cassette (Toledo deltaUS28) (see, e.g., Vieira, J. et al. (1998) J. Virol. 72:S158-65). Alternatively, rhesus dermal fibroblasts (RhDF) were infected at an MOI of 3 with rhesus CMV strain 68.1 (see ATCC # VR-677). At 96 hours post infection supernatants were collected.
(§4) Supernatants were cleared by two spins at 1,500 rpm for 5 minutes in a bench top centrifuge. Virions were pelleted from the supernatant for 30 minutes at 10,000 rpm in a Beckman JA-21 or J-14 centrifuge or other similar centrifuge and resuspended in 0.5 ml TN buffer (0.05 M Tris/HCl, pH 7.4, 0.1M NaCl) then layered onto a 5 ml sucrose density gradient (20% to 70% w/v sucrose in TN) in a SW 50 centrifuge tube. Gradients were spun 90 minutes at 24,000 rpm in a Beckman SW50 centrifuge at 10° C. […]
(§5) Following incubation, the assay wells were harvested under vacuum using filter plates, pre-soaked with PEI solution. Scintillation fluid was added, the plates sealed and the radioactivity in the various wells counted.

[5] = test system: HCMV virions lacking US28 (Toledo deltaUS28); test: 125I-fractalkine binding to virions (Example 4), US28-deleted HCMV; design: species or system human CMV strain Toledo deltaUS28; conditions: 3 hours at 4° C., FIG. 7
Description: as §3, §4, §5

[6] = test system: rhCMV virions purified from RHDF cells; test: 125I-fractalkine binding to virions (Example 4), rhCMV; design: species or system rhesus CMV strain 68.1; conditions: 3 hours at 4° C., FIG. 7
Description: as §3, §4, §5

US28 = target: T1, US28 (Human cytomegalovirus, UniProt P69332); conditions: Kledal et al., 1998; read-out: KI of binding to US28; cited from earlier work
T1 sequence (P69332 1-354): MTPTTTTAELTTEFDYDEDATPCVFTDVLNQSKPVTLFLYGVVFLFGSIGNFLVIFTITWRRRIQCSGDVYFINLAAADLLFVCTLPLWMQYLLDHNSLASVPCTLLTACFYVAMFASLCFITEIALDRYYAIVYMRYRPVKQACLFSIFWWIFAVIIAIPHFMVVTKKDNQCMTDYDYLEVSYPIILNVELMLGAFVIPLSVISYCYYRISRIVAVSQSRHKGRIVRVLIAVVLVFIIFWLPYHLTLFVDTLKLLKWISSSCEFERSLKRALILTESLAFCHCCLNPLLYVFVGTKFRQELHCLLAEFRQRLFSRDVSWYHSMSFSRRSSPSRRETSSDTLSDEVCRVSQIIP

fractalkine: CX3C chemokine, tends to be cell bound; binds with very high affinity to the US28 receptor of HCMV
IC50 [1]: ~0.04 nM | binding of labeled fractalkine to virions [2]: virtually no binding | IC50 [3]: 0.044 nM | binding of radiolabeled fractalkine to virions [4]: bind fractalkine tightly | binding of radiolabeled fractalkine to virions [5]: do not bind fractalkine | binding of radiolabeled fractalkine to virions [6]: also bind to fractalkine | Ki (US28): ~0.05 nM
